From article PMC11678328, “Phosphine Oxide Indenoquinoline Derivatives: Synthesis and Biological Evaluation as Topoisomerase I Inhibitors and Antiproliferative Agents” (Molecules, 2024) come the findings set out here.

What is called IC50 is the concentration that inhibits the measured activity by half. Read a high IC50 as weaker potency.

Some results are limits rather than exact numbers.

Data set [1] concerns A549 (carcinomic human alveolar basal epithelial cell). The data set can be described thus: CCK-8 cytotoxicity assay, A549. Type of data set: cell-based. The conditions noted are these: for IC50: A549 cells, 48h, CCK-8. From the text:
(§1) The cytotoxic effects of the newly synthesized diphenyl(tetrahydro-5H-indeno[2,1-c]quinolin-2-yl)phosphine oxides 8, diphenyl(7H-indeno[2,1-c]quinolin-2-yl)phosphine oxides 9, and diphenyl(7-oxo-7H-indeno[2,1-c]quinolin-2-yl)phosphine oxides 10 derivatives were studied against several human cell lines: A549 (carcinomic human alveolar basal epithelial cell), SKOV3 (human ovarian carcinoma), and HEK293 (human embryonic kidney). Furthermore, in order to analyze the selective cytotoxicity facing exclusively cancerous cell lines, toxicity against a non-cancerous cell line (MRC-5, lung fibroblast cells) was also evaluated (Table 3). The cell counting kit (CCK-8) assay was employed to assess the growth inhibition and cell proliferation inhibitory activities of the compounds, which are described in Table 3 as IC50 values.
(§2) Cells were cultured according to the supplier’s instructions. Cells were seeded in 96-well plates at a density of 1.5–3 × 10^3 cells per well and incubated overnight in 0.1 mL of media supplied with 10% Fetal Bovine Serum (Lonza) in a 5% CO2 incubator at 37 °C. On day 2, drugs were added and the samples were incubated for 48h. After treatment, 10 μL of the cell counting kit-8 was added into each well for an additional 2h incubation at 37 °C. The absorbance of each well was determined by an Automatic Elisa Reader System at 450 nm wavelength (deducting 620 nm). CPT was used as the positive control.

Data set [2] deals with SKOV3 (human ovarian carcinoma). Put plainly: CCK-8 cytotoxicity assay, SKOV3. Conditions: SK-OV-3, SKOV3 cells, 48h. It is filed as cell-based.
Description: as §1, §2

In another data set the target is T1, human TOP1 (Homo sapiens, UniProt P11387).
T1 construct: made in house; host or cells: Saccharomyces cerevisiae TOP1 null strain RS190, plasmid pHT143 (GAL promoter)
T1 sequence (P11387 1-765): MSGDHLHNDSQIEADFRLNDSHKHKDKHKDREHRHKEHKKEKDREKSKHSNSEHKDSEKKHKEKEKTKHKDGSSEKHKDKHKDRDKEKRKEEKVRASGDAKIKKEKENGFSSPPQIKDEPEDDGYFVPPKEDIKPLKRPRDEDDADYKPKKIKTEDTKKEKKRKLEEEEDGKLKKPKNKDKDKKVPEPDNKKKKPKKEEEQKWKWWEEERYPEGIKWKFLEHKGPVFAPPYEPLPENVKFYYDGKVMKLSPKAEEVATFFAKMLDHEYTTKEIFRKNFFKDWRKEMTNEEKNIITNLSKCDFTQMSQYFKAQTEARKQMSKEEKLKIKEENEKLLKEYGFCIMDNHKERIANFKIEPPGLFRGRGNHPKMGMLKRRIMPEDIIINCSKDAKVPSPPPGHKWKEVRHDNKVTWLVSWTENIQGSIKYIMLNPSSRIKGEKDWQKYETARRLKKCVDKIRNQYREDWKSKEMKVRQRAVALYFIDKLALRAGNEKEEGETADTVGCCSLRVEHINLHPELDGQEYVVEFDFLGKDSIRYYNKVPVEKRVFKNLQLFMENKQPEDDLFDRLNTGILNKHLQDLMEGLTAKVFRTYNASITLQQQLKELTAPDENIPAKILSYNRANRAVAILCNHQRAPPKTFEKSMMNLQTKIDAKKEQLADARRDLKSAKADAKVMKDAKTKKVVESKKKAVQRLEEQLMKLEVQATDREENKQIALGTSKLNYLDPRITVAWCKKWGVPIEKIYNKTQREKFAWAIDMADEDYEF
Put plainly: TOP1 supercoiled plasmid DNA relaxation assay. It is filed as biochemical. Conditions: for TOP1 Inhibition 1 min: 1 min reaction; for TOP1 Inhibition 1 min / TOP1 Inhibition 3 min / TOP1 Inhibition 5 min: compounds at 100 μM, semiquantitative; for TOP1 Inhibition 3 min: 3 min reaction; for TOP1 Inhibition 5 min: 5 min reaction. From the text: The effect of the previously prepared compounds as TOP1 inhibitors was studied. A conventional supercoiled plasmid relaxation assay was used to determine if the newly fused tetrahydroindenoquinolines 8, more aromatic indenoquinolines 9, and carbonyl derivatives 10 with phosphine oxide substituents inhibit human TOP1 activity by converting supercoiled plasmid DNA to its relaxed form. In these experiments, compound samples were mixed with the enzyme followed by the addition of a supercoiled plasmid DNA substrate, and incubation continued for increasing time intervals (1 min, 3 min, and 5 min). The reaction was terminated by the addition of SDS. DNA relaxation products were then resolved by 1% agarose electrophoresis gel and visualized by gel red staining.
The yeast Saccaromyces cerevisiae TOP1 null strain RS190, which was used for the expression of recombinant human TOP1, was a kind gift from R. Sternglanz (State University of New York, Stony Brook, NY, USA). Plasmid pHT143, for the expression of recombinant TOP1 under the control of an inducible GAL promoter, was described. The plasmids pHT143 were transformed into the yeast S. cerevisiae strain RS190. The proteins were expressed and purified by affinity chromatography essentially as described. The protein concentrations were estimated from Coomassie blue-stained SDS/polyacrylamide gels by comparison to serial dilutions of bovine serum albumin (BSA).
TOP1 activity was assayed using a DNA relaxation assay by incubating 110 ng/mL of TOP1 with 0.5 µg of negatively supercoiled pUC18 in […] of reaction buffer (20 mM Tris HCl, 0.1 mM Na2EDTA, 10 mM MgCl2, […] acetylated BSA, and 150 mM KCl, pH 7.5). The effect of the synthesized phosphorylated derivatives 8, 9, and 10 on the TOP1 activity was measured by adding different concentrations of the compounds, at different time points, as indicated in the text. The reactions were performed at 37 °C stopped by the addition of 0.5% SDS after the indicated time intervals. The samples were protease-digested and electrophoresed in a horizontal 1% agarose gel in 1xTBE (50 mM Tris, 45 mM boric acid, 1 mM EDTA) at 25V during 18h. The gel was stained with gel red (BIOTIUM, 5 mg/mL), destained with water, and photographed under UV illumination. Since all drugs were dissolved in dimethyl sulfoxide (DMSO), a […] control sample containing the same DMSO concentration as the samples incubated with the drugs was included in all experiments.

For data set [3], the system named is MRC-5, lung fibroblast cells. The data set can be described thus: CCK-8 cytotoxicity assay, MRC5. Conditions: Homo sapiens; MRC5 non-cancerous cells, 48h, CCK-8. Type of data set: cell-based, human.
Description: as §1, §2
For orientation: Formazan colour is commonly taken as a measure of viable cells.

In data set [4] the test system is HEK293 (human embryonic kidney). The data set can be described thus: CCK-8 cytotoxicity assay, HEK293. It is filed as cell-based. Conditions: HEK293 cells, 48h.
Description: as §1, §2

For `O=C1c2ccccc2-c2c1c(-c1ccc(F)c(F)c1)nc1ccc(P(=O)(c3ccccc3)c3ccccc3)cc21` [Compound 10e], the IC50 is greater than 50 µM in data set [1] (Homo sapiens, A549, 48 h); greater than 50 µM in data set [2]; greater than 50 µM in data set [3]; greater than 50 µM in data set [4]. In addition, on human TOP1, the “TOP1 Inhibition 1 min” value was “++”. Moreover, the “TOP1 Inhibition 3 min” value at human TOP1 is “++”. The “TOP1 Inhibition 5 min” value at human TOP1 is reported as “++”.

`O=P(c1ccccc1)(c1ccccc1)c1ccc2nc(-c3cccc(F)c3)c3c(c2c1)-c1ccccc1C3` [Compound 9d, Diphenyl(6-(3-fluorophenyl)-7H-indeno[2,1-c]quinolin-2-yl)phosphine oxide]: the IC50 was greater than 50 µM in data set [1] (Homo sapiens, A549, 48 h); greater than 50 µM in data set [2]; greater than 50 µM in data set [3]; greater than 50 µM in data set [4]. Besides, at human TOP1, the “TOP1 Inhibition 1 min” value is “+ (weak inhibition)”. The “TOP1 Inhibition 3 min” value at human TOP1 is “+ (weak inhibition)”. The “TOP1 Inhibition 5 min” value on human TOP1 is reported as “+ (weak inhibition)”.

Regarding `COc1ccc(-c2nc3ccc(P(=O)(c4ccccc4)c4ccccc4)cc3c3c2Cc2ccccc2-3)cc1` [Compound 9h, Diphenyl(6-(4-methoxyphenyl)-7H-indeno[2,1-c]quinolin-2-yl)phosphine oxide], on human TOP1, the “TOP1 Inhibition 1 min” value is “++”, the “TOP1 Inhibition 3 min” value is “++” and the “TOP1 Inhibition 5 min” value is given as “++”.

For `O=P(c1ccccc1)(c1ccccc1)c1ccc2nc(-c3ccc(F)cc3)c3c(c2c1)-c1ccccc1C3` [Compound 9c], the IC50 in data set [1] (Homo sapiens, A549, 48 h) was greater than 50 µM; in data set [2], greater than 50 µM; in data set [3], greater than 50 µM; in data set [4] it was greater than 50 µM. In addition, on human TOP1, the “TOP1 Inhibition 1 min” value is on record as “+ (weak inhibition)”. Moreover, at human TOP1, the “TOP1 Inhibition 3 min” value was “+ (weak inhibition)”. At human TOP1, the “TOP1 Inhibition 5 min” value is “+ (weak inhibition)”.

For `O=P(c1ccccc1)(c1ccccc1)c1ccc2nc(-c3ccccc3)c3c(c2c1)-c1ccccc1C3` [Compound 9a, Diphenyl(6-phenyl-7H-indeno[2,1-c]quinolin-2-yl)phosphine oxide], the IC50 in data set [1] (Homo sapiens, A549, 48 h) is greater than 50 µM; in data set [2] it was greater than 50 µM; in data set [3], greater than 50 µM; in data set [4], greater than 50 µM. Moreover, the “Persistence of TOP1 inhibition over the time course” value at human TOP1 (100 μM, in words) is given as “more persistent inhibition”. Moreover, the “TOP1 Inhibition 1 min” value on human TOP1 is “+ (weak inhibition)”. The “TOP1 Inhibition 3 min” value at human TOP1 is on record as “++”. For the same molecule, the “TOP1 Inhibition 5 min” value at human TOP1 is reported as “++”.

`O=C1c2ccccc2-c2c1c(-c1cccc(F)c1)nc1ccc(P(=O)(c3ccccc3)c3ccccc3)cc21` [Compound 10d, (6-(3-Fluorophenyl)-7-oxo-7H-indeno[2,1-c]quinolin-2-yl)diphenylphosphine oxide]: the IC50 was greater than 50 µM in data set [1] (Homo sapiens, A549, 48 h); greater than 50 µM in data set [2]; greater than 50 µM in data set [3]; greater than 50 µM in data set [4]. In addition, the “TOP1 Inhibition 1 min” value at human TOP1 is “+ (weak inhibition)”. Besides, the “TOP1 Inhibition 3 min” value on human TOP1 is reported as “+ (weak inhibition)”. Also, on human TOP1, the “TOP1 Inhibition 5 min” value was “+ (weak inhibition)”.

`O=P(c1ccccc1)(c1ccccc1)c1ccc2c(c1)C1c3ccccc3CC1C(c1ccc(F)cc1F)N2` (centres unmarked) [Compound 8f, Diphenyl(6-(2,4-difluorophenyl)-6,6a,7,11b-tetrahydro-5H-indeno[2,1-c]quinolin-2-yl)phosphine oxide]: the IC50 in data set [1] (Homo sapiens, A549, 48 h) was greater than 50 µM; in data set [2], 31 ± 3.17 µM; in data set [3] it was greater than 50 µM; in data set [4], greater than 50 µM. In addition, the “TOP1 Inhibition 1 min” value on human TOP1 was “+ (weak inhibition)”. In addition, the “TOP1 Inhibition 3 min” value at human TOP1 is recorded as “+ (weak inhibition)”. Also, the “TOP1 Inhibition 5 min” value on human TOP1 was “+ (weak inhibition)”.

As to `O=P(c1ccccc1)(c1ccccc1)c1ccc2c(c1)C1c3ccccc3CC1C(c1ccc(F)c(F)c1)N2` (centres unmarked) [Compound 8e, Diphenyl(6-(3,4-difluorophenyl)-6,6a,7,11b-tetrahydro-5H-indeno[2,1-c]quinolin-2-yl)phosphine oxide], the IC50 in data set [1] (Homo sapiens, A549, 48 h) is greater than 50 µM; in data set [2], 13.2 ± 2.79 µM; in data set [3] it was greater than 50 µM; in data set [4], greater than 50 µM. Besides, the “TOP1 Inhibition 1 min” value on human TOP1 is recorded as “++”. Besides, the “TOP1 Inhibition 3 min” value at human TOP1 was “++”. Besides, at human TOP1, the “TOP1 Inhibition 5 min” value was “++”.

Turning to `O=P(c1ccccc1)(c1ccccc1)c1ccc2nc(-c3ccc(F)cc3F)c3c(c2c1)-c1ccccc1C3` [Compound 9f, Diphenyl(6-(2,4-difluorophenyl)-7H-indeno[2,1-c]quinolin-2-yl)phosphine oxide], the “Cytotoxicity against A549 (in words)” value in data set [1] is recorded as “slight cytotoxicity”. Moreover, the IC50 in data set [1] (Homo sapiens, A549, 48 h) was 41.7 ± 7.25 µM; in data set [2], greater than 50 µM; in data set [3], greater than 50 µM; in data set [4], greater than 50 µM. Moreover, on human TOP1, the “TOP1 Inhibition 1 min” value is on record as “++”. The “TOP1 Inhibition 3 min” value at human TOP1 was “++”. Further, the “TOP1 Inhibition 5 min” value at human TOP1 was “++”.

Regarding `O=P(c1ccccc1)(c1ccccc1)c1ccc2c(c1)C1c3ccccc3CC1C(c1cccc(F)c1)N2` (centres unmarked) [Compound 8d, Diphenyl(6-(3-fluorophenyl)-6,6a,7,11b-tetrahydro-5H-indeno[2,1-c]quinolin-2-yl)phosphine oxide], the IC50 is 43.1 ± 12.1 µM in data set [1] (Homo sapiens, A549, 48 h); greater than 50 µM in data set [2]; greater than 50 µM in data set [3]; greater than 50 µM in data set [4]. In addition, the “TOP1 Inhibition 1 min” value at human TOP1 is listed as “++”. The “TOP1 Inhibition 3 min” value at human TOP1 is reported as “++”. The “TOP1 Inhibition 5 min” value at human TOP1 was “++”.

Turning to `O=P(c1ccccc1)(c1ccccc1)c1ccc2nc(-c3ccc(Br)cc3)c3c(c2c1)-c1ccccc1C3` [Compound 9j, Diphenyl(6-(4-bromophenyl)-7H-indeno[2,1-c]quinolin-2-yl)phosphine oxide], in data set [1], the “Cytotoxicity against A549 (in words)” value is recorded as “slight cytotoxicity”. Moreover, the IC50 in data set [1] (listed as 9k) is greater than 50 µM; in data set [1] (Homo sapiens, A549, 48 h) it was 42.3 ± 2.09 µM; in data set [2], greater than 50 µM; in data set [3] it was greater than 50 µM; in data set [4], greater than 50 µM. Besides, on human TOP1, the “TOP1 Inhibition 1 min” value is listed as “+ (weak inhibition)”. Besides, the “TOP1 Inhibition 3 min” value on human TOP1 is on record as “+ (weak inhibition)”. Moreover, on human TOP1, the “TOP1 Inhibition 5 min” value is given as “+ (weak inhibition)”.
